Assay results reported in article PMC7282811.
Read-outs that look alike come from different tables or passages of the source.

Legend:
H3R = target: T1, H3R (Mus musculus, UniProt P58406); assay: tissue or organelle; parameters: species or system brain tissue of 8-month-old Hdh^Q7/Q7 or Hdh^Q7/Q111 mice; radioligand binding to mouse brain region membranes, KD from saturation and competition curves
T1 construct: gene Hrh3; native receptor, endogenous in mouse brain tissue membranes
Protocol: (§1) Supplementary file elife-51093-supp2.docx: Supplementary file 2. H3R and D1R binding parameters in different brain regions from 8-month-old Hdh^Q7/Q7 and Hdh^Q7/Q111 mice. Mouse striatal, cortical or hippocampal tissue were homogenized in 50 mM Tris-HCl buffer and ligand binding was performed with membrane suspension (see online methods). Binding parameters from saturation and competition curves were obtained using Grafit software by fitting the binding data to the equation previously deduced (equation (3) in [Gracia et al., 2013]. Data are mean ± SEM of experiments performed per triplicate (n = 6 Hdh^Q7/Q7 and n = 5 Hdh^Q7/Q111). To test whether D1R-H3R heteromers can indeed be targets for treating HD, we investigated their expression and function in the striatum, cerebral cortex and hippocampus of a widely accepted preclinical model of HD, the heterozygous Hdh^Q7/Q111 mutant knock-in mice, and their wild-type Hdh^Q7/Q7 littermates ([Giralt et al., 2012]; [Puigdellívol et al., 2015]). By PLA we confirmed that both Hdh^Q7/Q7 and Hdh^Q7/Q111 mice display D1R-H3R heteromers at 2 months (mo) (Figure 2—figure supplement 1) and four mo (Figure 2A,B) of age in all brain regions tested. […] Heteromer expression was similar in all brain areas and no differences were observed between genotypes at 4 mo of age (Figure 2B). […] Although at 8 mo of age we detected a partial decrease in striatal D1R expression in Hdh^Q7/Q111 compared with Hdh^Q7/Q7 mice using ligand binding experiments (Supplementary file 2), the loss of heteromer expression is not due to a complete loss of receptor expression since by radioligand binding (Supplementary file 2) and mRNA expression analysis (Supplementary file 3) both receptors continue to be expressed.

D1R = target: T2, D1R (Mus musculus, UniProt Q61616); assay: tissue or organelle; parameters: species or system brain tissue of 8-month-old Hdh^Q7/Q7 or Hdh^Q7/Q111 mice; radioligand binding to mouse brain region membranes, KD from saturation and competition curves
T2 construct: gene Drd1; native receptor, endogenous in mouse brain tissue membranes
Protocol: as §1

[1] = target: T3, dopamine D1 receptor (D1R) (Mus musculus, UniProt Q61616); assay: radioligand saturation binding, cell membranes, filtration; conditions: labelled compound; STHdh^Q7 cell membranes; 50 mM Tris-HCl pH 7.4, 10 mM MgCl2, 25 °C; nonspecific with 30 µM unlabelled ligand; read-out: binding parameters
T3 construct: gene Drd1; native full-length receptor, endogenous in membranes of STHdh^Q7 mouse striatal cells; part may be in D1R-H3R heteromers
Protocol: radioligand saturation binding, cell membranes, filtration on dopamine D1 receptor (D1R) | membranes were incubated with increasing free concentrations of [^3H]

[2] = target: T3, dopamine D1 receptor (D1R); parameters: species or system STHdh^Q7 or STHdh^Q111 mouse striatal cells; radioligand binding to striatal cell membranes, KD from saturation and competition curves; conditions: STHdh^Q111 cell membranes; binder
Protocol: Supplementary file elife-51093-supp1.docx: Supplementary file 1. H3R and D1R binding parameters in STHdh^Q7, STHdh^Q111 cells. Striatal cells were homogenized in 50 mM Tris-HCl buffer and ligand binding was performed with membrane suspension (see materials and methods). Binding parameters from saturation and competition curves were obtained using Grafit software by fitting the binding data to the equation previously deduced (equation (3) in [Gracia et al., 2013]. Data are mean ± SEM of experiments performed per triplicate.

[3] = Cortex, 8-month-old Hdh^Q7/Q7 mice
[4] = Hippocampus, 8-month-old Hdh^Q7/Q7 mice
[5] = Hippocampus, 8-month-old Hdh^Q7/Q111 mice
[6] = Striatum, 8-month-old Hdh^Q7/Q7 mice
[7] = Striatum, 8-month-old Hdh^Q7/Q111 mice

T1 sequence (P58406 whole entry): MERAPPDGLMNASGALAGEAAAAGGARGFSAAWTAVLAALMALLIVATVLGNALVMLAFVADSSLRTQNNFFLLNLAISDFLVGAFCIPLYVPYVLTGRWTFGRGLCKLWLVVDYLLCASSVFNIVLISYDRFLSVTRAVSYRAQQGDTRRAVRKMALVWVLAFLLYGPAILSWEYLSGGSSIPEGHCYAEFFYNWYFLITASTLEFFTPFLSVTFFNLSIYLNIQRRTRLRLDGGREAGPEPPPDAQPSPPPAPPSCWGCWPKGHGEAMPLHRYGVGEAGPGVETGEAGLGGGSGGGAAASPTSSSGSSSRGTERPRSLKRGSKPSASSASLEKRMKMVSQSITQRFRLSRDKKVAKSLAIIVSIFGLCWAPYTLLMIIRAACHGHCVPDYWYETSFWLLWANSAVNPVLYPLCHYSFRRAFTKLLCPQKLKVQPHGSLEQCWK
T2 sequence (Q61616 whole entry): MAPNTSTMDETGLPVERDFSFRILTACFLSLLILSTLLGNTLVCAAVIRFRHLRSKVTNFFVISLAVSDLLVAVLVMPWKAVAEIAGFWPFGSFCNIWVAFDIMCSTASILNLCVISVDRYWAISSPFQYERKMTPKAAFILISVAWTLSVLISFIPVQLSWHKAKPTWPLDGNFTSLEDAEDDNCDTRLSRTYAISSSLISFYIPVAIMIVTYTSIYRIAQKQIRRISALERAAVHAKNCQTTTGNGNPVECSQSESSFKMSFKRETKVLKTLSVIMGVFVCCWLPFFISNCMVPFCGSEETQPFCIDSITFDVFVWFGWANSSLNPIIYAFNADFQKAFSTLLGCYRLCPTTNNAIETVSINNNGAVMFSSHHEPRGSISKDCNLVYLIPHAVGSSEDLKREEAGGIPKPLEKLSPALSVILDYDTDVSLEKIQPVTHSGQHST
T3 sequence (Q61616 whole entry): as above

Structure (SMILES) | Kd (H3R; [3]) [nM] | Kd (H3R; Cortex, 8-month-old Hdh^Q7/Q111 mice) [nM] | Kd (H3R; [4]) [nM] | Kd (H3R; [5]) [nM] | Kd (H3R; [6]) [nM] | Kd (H3R; [7]) [nM] | Kd (D1R; [3]) [nM] | Kd (D1R; [4]) [nM] | Kd (D1R; [5]) [nM] | Kd (D1R; [6]) [nM] | Kd (D1R; [7]) [nM] | Kd [1] [nM] | Kd [2] [nM]
C[C@@H](N)Cc1c[nH]cn1 [[^3H] R-α-methyl histamine] | 0.22 ± 0.02 | 0.24 ± 0.04 | 0.2 ± 0.01 | 0.37 ± 0.1 | 0.27 ± 0.03 | 0.26 ± 0.03 | – | – | – | – | – | – | –
CN1CCc2cc(Cl)c(O)cc2[C@@H](c2ccccc2)C1 [[^3H] SCH 23390] | – | – | – | – | – | – | 0.05 ± 0.01 | 0.03 ± 0.02 | 0.09 ± 0.07 | 0.17 ± 0.02 | 0.11 ± 0.01 | 0.3 ± 0.1 | 0.16 ± 0.08
